Test [1] deals with Disintegrin and metalloproteinase domain-containing protein 17 (Homo sapiens, UniProt P78536). Description: Inhibition of TACE.
In test [2] the target is 72 kDa type IV collagenase (Homo sapiens, UniProt P08253). Description: Inhibition of MMP2.
The next test deals with Collagenase 3 (Homo sapiens, UniProt P45452). Kind of test: Inhibition of MMP13.
Another test concerns the target T1, Matrilysin (Homo sapiens, UniProt P09237).
T1 sequence (P09237 whole entry): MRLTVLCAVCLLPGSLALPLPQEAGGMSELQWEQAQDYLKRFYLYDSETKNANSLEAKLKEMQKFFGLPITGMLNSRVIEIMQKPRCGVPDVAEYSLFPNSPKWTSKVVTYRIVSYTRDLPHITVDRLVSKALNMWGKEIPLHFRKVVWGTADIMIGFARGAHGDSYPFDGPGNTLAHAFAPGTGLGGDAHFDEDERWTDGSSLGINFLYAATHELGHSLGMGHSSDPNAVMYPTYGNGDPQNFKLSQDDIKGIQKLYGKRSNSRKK
Description: Inhibition of MMP7.

Test [3] deals with Matrix metalloproteinase-9 (Homo sapiens, UniProt P14780). Kind of test: Inhibition of MMP9.
Chain of Matrix metalloproteinase-9 (P14780 whole entry): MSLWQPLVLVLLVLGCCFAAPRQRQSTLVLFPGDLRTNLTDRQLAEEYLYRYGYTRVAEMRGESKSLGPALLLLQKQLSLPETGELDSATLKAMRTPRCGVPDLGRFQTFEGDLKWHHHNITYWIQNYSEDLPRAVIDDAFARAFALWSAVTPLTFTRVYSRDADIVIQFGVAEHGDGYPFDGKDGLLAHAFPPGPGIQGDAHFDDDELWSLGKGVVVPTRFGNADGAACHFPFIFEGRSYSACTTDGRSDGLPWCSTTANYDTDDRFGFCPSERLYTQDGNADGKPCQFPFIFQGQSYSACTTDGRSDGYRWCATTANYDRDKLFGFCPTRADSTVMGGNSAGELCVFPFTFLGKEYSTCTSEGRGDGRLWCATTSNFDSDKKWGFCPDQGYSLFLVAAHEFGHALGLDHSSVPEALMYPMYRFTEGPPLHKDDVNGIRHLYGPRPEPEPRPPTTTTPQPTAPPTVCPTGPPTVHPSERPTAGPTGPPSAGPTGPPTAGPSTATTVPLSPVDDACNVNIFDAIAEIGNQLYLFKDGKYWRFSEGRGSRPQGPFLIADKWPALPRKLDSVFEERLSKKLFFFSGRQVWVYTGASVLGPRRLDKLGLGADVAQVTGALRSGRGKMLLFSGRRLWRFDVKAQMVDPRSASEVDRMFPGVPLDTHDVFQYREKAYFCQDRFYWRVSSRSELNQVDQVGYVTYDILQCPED
In a further test the target is Neutrophil collagenase (Homo sapiens, UniProt P22894). Kind of test: Inhibition of MMP8.
Chain of Neutrophil collagenase (P22894 whole entry): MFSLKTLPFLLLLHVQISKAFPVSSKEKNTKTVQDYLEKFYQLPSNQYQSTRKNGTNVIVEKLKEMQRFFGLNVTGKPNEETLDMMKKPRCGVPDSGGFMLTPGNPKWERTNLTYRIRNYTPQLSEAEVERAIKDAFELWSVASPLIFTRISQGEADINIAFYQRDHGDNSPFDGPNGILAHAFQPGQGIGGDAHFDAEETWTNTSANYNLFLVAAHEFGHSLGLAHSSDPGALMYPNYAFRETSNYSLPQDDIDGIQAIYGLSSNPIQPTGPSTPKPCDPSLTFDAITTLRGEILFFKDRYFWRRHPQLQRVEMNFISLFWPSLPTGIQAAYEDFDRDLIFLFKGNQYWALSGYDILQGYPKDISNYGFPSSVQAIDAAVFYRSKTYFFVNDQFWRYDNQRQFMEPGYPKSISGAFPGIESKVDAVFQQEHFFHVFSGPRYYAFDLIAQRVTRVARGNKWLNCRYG

The structures appear in SMILES notation. Bounds are passed on as bounds.

Chain of Disintegrin and metalloproteinase domain-containing protein 17 (P78536 whole entry, the tested form may be a part): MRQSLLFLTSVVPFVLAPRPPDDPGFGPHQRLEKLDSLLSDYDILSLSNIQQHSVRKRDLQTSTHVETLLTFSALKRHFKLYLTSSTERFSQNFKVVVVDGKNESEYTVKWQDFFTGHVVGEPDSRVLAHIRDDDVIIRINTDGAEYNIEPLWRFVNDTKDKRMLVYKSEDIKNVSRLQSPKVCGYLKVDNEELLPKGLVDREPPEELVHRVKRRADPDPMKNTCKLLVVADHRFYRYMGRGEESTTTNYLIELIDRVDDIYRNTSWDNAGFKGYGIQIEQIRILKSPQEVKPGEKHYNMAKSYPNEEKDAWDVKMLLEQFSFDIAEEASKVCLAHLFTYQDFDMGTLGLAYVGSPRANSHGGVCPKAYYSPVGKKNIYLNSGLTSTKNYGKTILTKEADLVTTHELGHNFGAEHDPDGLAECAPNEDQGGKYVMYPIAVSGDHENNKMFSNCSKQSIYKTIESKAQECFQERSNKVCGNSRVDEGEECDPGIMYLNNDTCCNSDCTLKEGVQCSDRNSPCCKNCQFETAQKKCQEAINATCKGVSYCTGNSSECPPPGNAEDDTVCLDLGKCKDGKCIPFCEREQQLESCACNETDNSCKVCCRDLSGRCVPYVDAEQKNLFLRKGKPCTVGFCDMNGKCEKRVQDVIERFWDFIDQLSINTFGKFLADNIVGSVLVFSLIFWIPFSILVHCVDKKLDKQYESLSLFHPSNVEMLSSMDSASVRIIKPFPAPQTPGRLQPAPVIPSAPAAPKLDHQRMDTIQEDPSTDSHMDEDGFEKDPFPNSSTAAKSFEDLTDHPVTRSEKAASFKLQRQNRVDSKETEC
Chain of 72 kDa type IV collagenase (P08253 whole entry): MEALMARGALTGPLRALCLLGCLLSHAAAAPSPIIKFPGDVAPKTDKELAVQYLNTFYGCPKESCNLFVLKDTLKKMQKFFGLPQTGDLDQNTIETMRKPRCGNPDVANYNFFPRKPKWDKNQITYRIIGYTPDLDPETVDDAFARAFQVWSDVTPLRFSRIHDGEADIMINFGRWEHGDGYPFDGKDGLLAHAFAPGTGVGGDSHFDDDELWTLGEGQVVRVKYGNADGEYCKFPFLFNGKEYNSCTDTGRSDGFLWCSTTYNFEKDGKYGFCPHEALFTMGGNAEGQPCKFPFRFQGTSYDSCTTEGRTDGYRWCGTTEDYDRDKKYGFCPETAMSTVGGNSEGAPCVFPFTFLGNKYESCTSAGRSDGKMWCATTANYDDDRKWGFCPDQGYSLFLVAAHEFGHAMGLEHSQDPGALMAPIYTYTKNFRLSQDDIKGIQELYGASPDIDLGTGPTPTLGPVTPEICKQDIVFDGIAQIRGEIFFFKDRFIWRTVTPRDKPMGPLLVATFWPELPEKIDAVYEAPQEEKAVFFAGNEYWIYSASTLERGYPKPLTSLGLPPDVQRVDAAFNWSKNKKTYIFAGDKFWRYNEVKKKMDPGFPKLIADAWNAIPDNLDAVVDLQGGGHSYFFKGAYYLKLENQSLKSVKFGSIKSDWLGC

The Ki is a measure of affinity in units of concentration, obtained from inhibition or displacement. Molecule `CC#CCOc1ccc(S(=O)(=O)C2CCC(S)C2)cc1` (stereo unspecified) returned a Ki in test [1] of 50 nM.

Molecule `CC#CCOc1ccc(S(=O)(=O)CCS)cc1` came in with an inhibition constant Ki in test [1] of 8 nM.

In test [1], `CC#CCNc1ccc(S(=O)(=O)CCS)cc1` yielded an inhibition constant (Ki) of 2 nM.

Regarding `CC#CCNc1ccc(S(=O)(=O)CCCS)cc1`, in test [1], the Ki turned out to be 4.5 nM.

In test [1], `CC#CCOc1ccc(S(=O)(=O)[C@@H]2CCC[C@@H](S)C2)cc1` showed a Ki of 30 nM.

Take `CC#CCNc1ccc(S(=O)(=O)[C@@H]2CCC[C@@H](S)C2)cc1`: the Ki in test [1] came out at 17 nM.

Turning to `CC#CCOc1ccc(S(=O)(=O)CCCS)cc1`, the Ki in test [2] was 1300 nM; at Collagenase 3, 1700 nM; on Matrilysin, > 2500 nM; in test [3] it was 6300 nM; on Neutrophil collagenase, 2700 nM.
